Test results from patent US10508086B2 (CANCER RESEARCH TECHNOLOGY LIMITED, priority 2014, dated 2019).

Tests used:
[1] = biological target: PARG in HeLa cell line (Homo sapiens (Human), UniProt Q86W56); experiment: PARG cell assay (nuclear PAR chains after MMS, immunofluorescence); type: cell-based; conditions: HeLa cells, MMS 50 μg/mL; read-out: PARG Cell IC50 Geomean
In short: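 HeLa cells pre-dosed 1 h with compound (10-point dose response), then MMS 50 μg/mL for a further hour at 37 °C. Fixed cells immunostained with anti-PAR antibody plus Alexa Fluor 488 secondary and Hoechst. High-content imaging quantified nuclear PAR fluorescence intensity; inhibition maintains PAR chains.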

[2] = biological target: Human Full Length ARH3 (Homo sapiens (Human), UniProt Q9NX46); experiment: ARH3 in vitro selectivity assay (TR-FRET); type: biochemical; conditions: read-out: ARH3 Biochem IC50
Description: ARH3 In vitro selectivity assays were conducted in a total volume of 15 ul in a standard 384 well format. 5 ul of Human Full Length ARH3 (Enzo Life Sciences: ALX-201-292), used at a final reaction concentration of 17.5 nM, was added to 5 ul of Ribosylated PARP substrate (also produced internally by Astra Zeneca) at final reaction concentration of 4.5 nM in assay buffer (50 mM Tris pH7.4, 0.1 mg/ml BSA, 3 mM EDTA, 0.4 mM EGTA, 1 mM DTT, 0.01% Tween 20, 50 mM KCl). The reaction was incubated at room temperature for 30 minutes and then 5 ul detection reagent was added. Detection Reagent consists of 42 nM MAb Anti-6HIS XL665 (CisBio: 61HISXLB) and 2.25 nM Streptavidin Europium Cryptate (CisBio: 610SAKLB), both at 3× working stock concentrations (final concentrations of 14 nM and 0.75 nM respectively), in a detection buffer of 50 mM Tris pH7.4, BSA at 0.1 mg/ml and KF at 100 mM. Following incubation at room temperature for 60 minutes in the dark, TR-FRET signal was measured at Ex 340 and Em 665 and Em 620. A ratio was calculated as Em665/EM620×104 for each well and used to calculate percent inhibition for test compounds.

[3] = biological target: Human Full Length PARG (Homo sapiens (Human), UniProt Q86W56); experiment: PARG in vitro enzyme assay (TR-FRET); type: biochemical; conditions: read-out: PARG_EC50_ENZYME
In short: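 Full-length human PARG ([…]) incubated with ribosylated PARP substrate (4.5 nM) for 10 min at room temperature in Tris pH 7.4 buffer with EDTA, EGTA, DTT, KCl. Detection by TR-FRET using anti-6HIS XL665 (14 nM final) and streptavidin europium cryptate (0.75 nM final) after 60 min; Em665/Em620 ratio converted to percent inhibition.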

[4] = biological target: Human High specific Activity PARP1 (Homo sapiens (Human), UniProt P09874); experiment: PARP1 in vitro selectivity assay (histone PARylation, luminescence); type: biochemical; conditions: read-out: PARP1 Biochem IC50
Description: PARP1 In vitro selectivity assays were conducted as a 10 ul reaction volume in a NUNC Maxisorp 384-well assay plate pre-coated in-house with Histones. 5 ul of Human High specific Activity PARP1 (Trevigen: 4668-100-01) was used at a final reaction concentration of 0.02 units/ml in 1×PARP Buffer (Trevigen: 4671-096-02) with 5 ul of 1×PARP cocktail, which is a mixture of 10×PARP Cocktail (Trevigen: 4671-096-03), 10× Activate DNA (Trevigen: 4671-096-06) and 20×PARP Buffer (as above). The reaction was incubated at room temperature for 60 minutes to allow histones on the coated plate to become PARylated. The wells were then washed with PBS/0.1% Triton X100. PARP1 activity was then detected by measuring the extent of PARylation. Firstly, 10 ul of Streptavidin-HRP (Trevigen: 4800-30-06), diluted 1 in 250 in 1×PARG Assay Buffer (Trevigen: 4680-096-02), was added to each well and incubated at room temperature for 60 minutes. Secondly, following another wash with PBS/0.1% Triton X100, Peroxy Glow Reagents A and B (Trevigen: 4675-096-01 and 4675-096-02) were mixed in equal quantities immediately before use and 100 ul was added to each well. Luminescence signal was then measured immediately.

Human High specific Activity PARP1, sequence (P09874 whole entry): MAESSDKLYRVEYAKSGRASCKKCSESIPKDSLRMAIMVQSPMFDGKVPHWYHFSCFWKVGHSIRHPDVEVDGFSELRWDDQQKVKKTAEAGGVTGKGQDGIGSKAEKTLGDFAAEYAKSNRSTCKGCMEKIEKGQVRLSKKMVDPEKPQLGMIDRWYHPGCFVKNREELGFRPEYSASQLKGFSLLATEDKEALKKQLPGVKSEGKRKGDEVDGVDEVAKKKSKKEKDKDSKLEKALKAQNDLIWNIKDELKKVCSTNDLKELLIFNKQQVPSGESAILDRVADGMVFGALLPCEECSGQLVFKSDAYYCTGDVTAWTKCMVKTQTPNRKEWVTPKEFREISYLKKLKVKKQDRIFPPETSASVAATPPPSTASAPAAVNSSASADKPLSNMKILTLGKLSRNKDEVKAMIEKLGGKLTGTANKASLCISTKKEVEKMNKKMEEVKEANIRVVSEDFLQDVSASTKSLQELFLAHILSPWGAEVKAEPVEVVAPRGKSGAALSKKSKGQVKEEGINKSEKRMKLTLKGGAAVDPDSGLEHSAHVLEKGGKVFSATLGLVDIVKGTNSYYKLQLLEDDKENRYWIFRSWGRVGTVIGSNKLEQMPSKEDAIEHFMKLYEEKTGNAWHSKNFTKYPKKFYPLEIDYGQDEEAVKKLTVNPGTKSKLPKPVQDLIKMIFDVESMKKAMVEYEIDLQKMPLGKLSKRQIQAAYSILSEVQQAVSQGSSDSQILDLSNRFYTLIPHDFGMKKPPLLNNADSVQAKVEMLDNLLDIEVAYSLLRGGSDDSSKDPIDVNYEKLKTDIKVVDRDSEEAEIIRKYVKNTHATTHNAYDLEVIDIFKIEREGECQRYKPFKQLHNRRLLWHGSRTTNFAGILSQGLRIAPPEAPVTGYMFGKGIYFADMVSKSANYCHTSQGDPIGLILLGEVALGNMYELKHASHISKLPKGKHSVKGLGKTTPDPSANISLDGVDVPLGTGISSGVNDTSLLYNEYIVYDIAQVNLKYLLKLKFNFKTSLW
PARG in HeLa cell line, sequence (Q86W56 whole entry): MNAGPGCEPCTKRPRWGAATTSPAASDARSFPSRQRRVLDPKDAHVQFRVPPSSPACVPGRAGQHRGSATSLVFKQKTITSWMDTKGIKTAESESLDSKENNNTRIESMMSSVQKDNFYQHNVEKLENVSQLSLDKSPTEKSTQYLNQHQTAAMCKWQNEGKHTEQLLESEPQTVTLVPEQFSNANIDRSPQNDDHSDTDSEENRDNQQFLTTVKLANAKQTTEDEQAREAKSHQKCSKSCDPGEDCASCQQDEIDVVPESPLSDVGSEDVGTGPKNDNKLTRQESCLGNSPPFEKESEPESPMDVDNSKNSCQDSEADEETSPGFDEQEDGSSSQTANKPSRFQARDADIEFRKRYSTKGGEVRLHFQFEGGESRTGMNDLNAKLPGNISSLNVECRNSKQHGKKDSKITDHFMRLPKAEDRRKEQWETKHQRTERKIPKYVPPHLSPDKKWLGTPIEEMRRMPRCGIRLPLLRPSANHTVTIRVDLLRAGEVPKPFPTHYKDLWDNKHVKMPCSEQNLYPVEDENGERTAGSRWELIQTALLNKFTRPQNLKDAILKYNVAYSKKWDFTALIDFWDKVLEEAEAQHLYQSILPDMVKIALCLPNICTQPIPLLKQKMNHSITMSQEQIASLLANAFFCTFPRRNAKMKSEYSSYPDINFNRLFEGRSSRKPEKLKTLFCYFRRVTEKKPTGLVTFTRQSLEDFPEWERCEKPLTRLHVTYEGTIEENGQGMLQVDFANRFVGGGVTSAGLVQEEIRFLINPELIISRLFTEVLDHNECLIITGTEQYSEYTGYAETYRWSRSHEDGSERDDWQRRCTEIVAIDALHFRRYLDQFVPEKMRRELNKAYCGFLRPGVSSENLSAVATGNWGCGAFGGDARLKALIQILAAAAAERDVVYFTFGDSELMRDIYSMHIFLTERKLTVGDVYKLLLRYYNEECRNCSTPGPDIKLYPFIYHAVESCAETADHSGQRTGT
Human Full Length PARG, sequence (Q86W56 whole entry): as above
Human Full Length ARH3, sequence (Q9NX46 whole entry): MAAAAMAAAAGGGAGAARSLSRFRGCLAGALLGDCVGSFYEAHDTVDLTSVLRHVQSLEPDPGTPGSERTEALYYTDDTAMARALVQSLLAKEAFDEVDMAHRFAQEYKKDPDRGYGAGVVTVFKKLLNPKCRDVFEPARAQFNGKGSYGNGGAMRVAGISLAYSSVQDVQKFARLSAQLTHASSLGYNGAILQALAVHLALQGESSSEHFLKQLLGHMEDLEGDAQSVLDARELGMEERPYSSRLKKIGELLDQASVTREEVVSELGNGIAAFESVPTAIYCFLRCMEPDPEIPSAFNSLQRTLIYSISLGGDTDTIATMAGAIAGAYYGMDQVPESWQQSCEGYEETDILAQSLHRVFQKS

IC50 [1] [µM] | IC50 [2] [µM] | EC50 [3] [µM] | IC50 [4] [µM] | Compound
0.0466 | > 150 | 0.134 | > 150 | CC1(NS(=O)(=O)c2ccc3c(C(=O)C4CC4)cn(-c4nnc(C(F)F)s4)c3c2)CC1 [Example 145, 3-(Cyclopropanecarbonyl)-1-[5-(difluoromethyl)-1,3,4-thiadiazol-2-yl]-N-(1-methylcyclopropyl)indole-6-sulfonamide]
0.041 | > 50 | 0.091 | > 150 | Cn1c(=O)n(-c2nnc(C(F)F)s2)c2cc(S(=O)(=O)NC3(CF)CC3)c(F)cc21 [Example 174, 3-[5-(difluoromethyl)-1,3,4-thiadiazol-2-yl]-6-fluoro-N-[1-(fluoromethyl)cyclopropyl]-1-methyl-2-oxo-benzimidazole-5-sulfonamide]
0.029 | > 150 | 0.054 | > 150 | CCn1c(=O)n(-c2nnc(C(F)F)s2)c2cc(S(=O)(=O)NC3(CF)CC3)c(F)cc21 [Example 208, 3-[5-(Difluoromethyl)-1,3,4-thiadiazol-2-yl]-1-ethyl-6-fluoro-N-[1-(fluoromethyl)cyclopropyl]-2-oxo-benzimidazole-5-sulfonamide]
